Laboratory results taken from patent US9616056B2, “Inhibition of leukotriene synthesis and activity in the treatment of sonic hedgehog-associated medulloblastoma” (Institute for Cancer Research, priority 2013, dated 2017).
“Also recorded” adds a separate entry of the source.

Legend:
[1] = system: tumor cells isolated from Math1-Cre/Ptch1^C/C animals (MB cells); experiment: Nestin expression in cultured medulloblastoma tumor cells (immunostaining); type: cell-based, mouse
Method: (§1) GNPs isolated from Ptch1^C/C animals were plated and infected with lentivirus carrying Cre recombinase to delete Ptch1. At 48 hrs following the infection, GNPs were stained for Cre (green) and Nestin (red) in control (Panel A) and in the presence of 20 ng/ml leukotriene (Panel B). MB cells were plated in vitro for 48 hrs, and stained for Nestin (red) in control (Panel C) and in the presence of 5 μM MK886. (Panel D).
Tumor cells isolated from Math1-Cre/Ptch1^C/C animals, were treated with 3 μM DMSO (Panels A and B) or MK886 (Panels C and D) in vitro. After 48 hrs treatment, tumor cells were harvested for immunostaining with antibodies against Nestin (red) and Ki67 (green) (Panels B and D). The same cultures were counterstained by DAPI (blue) to show the total cell number (Panels A and B).
To further examine whether Leukotriene synthesis is required for Nestin expression in tumor cells, tumor cells were isolated from the mouse model, which has already highly expresses Nestin in vivo, even in the culture at 48 hrs following plating.
It was next investigated whether leukotriene inhibition can prevent tumor cell proliferation. […] At 48 hrs after treatment, tumor cells were analyzed for proliferation by immunostaining for Ki67. […]

[2] = system: medulloblastoma in Math1-Cre/Ptch1^C/C animals; experiment: In vivo tumor growth in tumor bearing Math1-Cre/Ptch1^C/C animals; parameters: species or system mouse
Method: Tumor bearing animals were treated with MK886 or DMSO by IP injection. After 1 month treatment, tumors were harvested. Tumor size was reduced by 30% with the treatment of MK886 (Panel A). After the treatment, tumors were sectioned for immunostaining for Nestin (Panels B and D), and Ki67 (Panels C and E). In the control (Panels B and C), tumor cells extensively express Nestin (Panel B) and all the tumor cells were Ki67 positive (Panel C).
Next, the efficacy of MK886 in inhibiting in vivo tumor growth was evaluated. Math1-Cre/Ptch1^C/C animals at postnatal day 21 were treated daily with 30 μg MK886 by intraperitoneal injection. Three weeks later, tumor volume was evaluated by MRI imaging.
Nestin expression and Ki67 was compared in tumor sections by immunohistochemical analysis.

[3] = system: tumor cells isolated from Math1-Cre/Ptch1^C/C animals (MB cells); experiment: Tumor cell proliferation in vitro by Ki67 immunostaining; type: cell-based, mouse; conditions: 48 hrs treatment, 3 μM, vs DMSO (FIG. 5)
Method: 48 hrs later, the percentage of proliferating cells was calculated after immunostaining the culture with antibody against Ki67.
Tumor cells isolated from the mouse model were treated with MK886 or DMSO as a control. At 48 hrs after treatment, tumor cells were analyzed for proliferation by immunostaining for Ki67.
DMSO was used as a negative control.

[4] = system: GBM cell lines T98G, U-87MG and U251; experiment: GBM cell viability by Alamar blue assay; type: cell-based; conditions: various concentrations, 48 hrs (FIG. 8)
Method: Three GBM cell lines (T98G, U87-MG and U251) were plated and treated with MK886 and Montelukast at various concentrations for 48 hrs. Cell viability was measured by Alamar blue assay. Data represent the average of triplicate+SD. *p<0.05
To test the efficacy of leukotriene inhibitors in preventing glioblastoma cell proliferation, three GBM cell lines: T98G, U-87MG and U251 (purchased from an in-house cell culture facility) were utilized. The cell lines were treated with MK886 and Montelukast at different concentrations. After treatment for 48 hrs, cell survival and growth was analyzed by Alamar blue assay (Al-Nasiry, S et al. (2007) Hum. Reprod. 22:1304-9).

Ptch1-deficient GNPs = experiment: Induction of Nestin expression in Ptch1-deficient GNPs (immunocytochemistry); type: cell-based, mouse; conditions: 20 ng/ml leukotriene, 48 hrs after Cre lentivirus infection
Method: as §1
Since Nestin is a cytoskeleton protein, it was examined whether leukotriene could induce Nestin expression in medulloblastoma cells. For this purpose, cerebellar GNPs were isolated from Ptch1^C/C animals, and Patched1 (Ptch1) was deleted from GNPs by using a lentivirus with Cre recombinase. At 48 hrs following the infection, cells were harvested to analyze Nestin expression by immunocytochemistry. […] The presence of Nestin mRNA and protein has been confirmed by RT-PCR and western blotting (data not shown).

Molecule	Nestin expression in tumor cells ([1]; 48 hrs treatment, 3 μM, vs DMSO (FIG. 5))	Nestin expression among tumor cells ([1]; MB cells plated in vitro 48 hrs, 5 μM MK886 (FIG. 4))	decrease of tumor size in volume (MRI imaging) ([2]; 30 μg MK886 daily intraperitoneal from postnatal day 21, three weeks, vs DMSO)	tumor size reduction ([2]; IP injection, after 1 month treatment, tumors harvested (FIG. 7 Panel A))	Nestin expression in tumor sections after treatment ([2]; immunostaining of tumor sections after MK886 treatment vs DMSO)	number of Ki67 positive cells in tumor ([2]; tumor sections after MK886 treatment compared with control)	tumor cells still positive for Ki67 ([2]; tumor sections after MK886 treatment, control all cells Ki67 positive (FIG. 7 Panel E))	proliferation among tumor cells (Ki67) [3]	viability of GBM cells [4]	Nestin protein among Ptch1-deficient GNPs (Ptch1-deficient GNPs)
CC(C)c1ccc2c(c1)c(SC(C)(C)C)c(CC(C)(C)C(=O)[O-])n2Cc1ccc(Cl)cc1.[Na+] [MK886, 1-[(4-Chlorophenyl)methyl]-3-[(1,1-dimethylethyl)thio]-α,α-dimethyl-5-(1-methylethyl)-1H-Indole-2-propanoic acid]	markedly inhibited	dramatically inhibited	over 30%	30%	dramatically reduced; also recorded: almost no Nestin is present	decreased dramatically	around 30%	prevented the proliferation	effectively reduce the viability	–
CC(C)(O)c1ccccc1CC[C@@H](SCC1(CC(=O)O)CC1)c1cccc(/C=C/c2ccc3ccc(Cl)cc3n2)c1 [Montelukast, (R,E)-2-(1-((1-(3-(2-(7-chloroquinolin-2-yl)vinyl)phenyl)-3-(2-(2-hydroxypropan-2-yl)phenyl)propylthio)methyl)cyclopropyl)acetic acid]	–	–	–	–	–	–	–	–	effectively reduce the viability	–
leukotriene	–	–	–	–	–	–	–	–	–	high level of Nestin protein was detected
